In patent publication US11370776B2, “Sulfonylureas and sulfonylthioureas as NLRP3 inhibitors” (Inflazome Limited, priority 2017, dated 2022):
pIC50: −log10 of the molar value. Counter-ions that a name gives are not always drawn.

Key:
NLRP3 [1] = target: T1, NLRP3 (Homo sapiens, UniProt Q96P20); assay: THP-1 cells pyroptosis assay; assay type: cell-based; design: Seed THP-1 cells (25,000 cells/well) containing 1.0 μg/ml LPS; host or cells: THP-1 cells, LPS-primed, nigericin-stimulated; conditions: for pIC50: 1.0 μg/ml LPS, nigericin 5 μM, pyroptosis read with resazurin; for NLRP3 inhibitory activity (in words): THP-1 pyroptosis assay
T1 sequence (Q96P20 whole entry): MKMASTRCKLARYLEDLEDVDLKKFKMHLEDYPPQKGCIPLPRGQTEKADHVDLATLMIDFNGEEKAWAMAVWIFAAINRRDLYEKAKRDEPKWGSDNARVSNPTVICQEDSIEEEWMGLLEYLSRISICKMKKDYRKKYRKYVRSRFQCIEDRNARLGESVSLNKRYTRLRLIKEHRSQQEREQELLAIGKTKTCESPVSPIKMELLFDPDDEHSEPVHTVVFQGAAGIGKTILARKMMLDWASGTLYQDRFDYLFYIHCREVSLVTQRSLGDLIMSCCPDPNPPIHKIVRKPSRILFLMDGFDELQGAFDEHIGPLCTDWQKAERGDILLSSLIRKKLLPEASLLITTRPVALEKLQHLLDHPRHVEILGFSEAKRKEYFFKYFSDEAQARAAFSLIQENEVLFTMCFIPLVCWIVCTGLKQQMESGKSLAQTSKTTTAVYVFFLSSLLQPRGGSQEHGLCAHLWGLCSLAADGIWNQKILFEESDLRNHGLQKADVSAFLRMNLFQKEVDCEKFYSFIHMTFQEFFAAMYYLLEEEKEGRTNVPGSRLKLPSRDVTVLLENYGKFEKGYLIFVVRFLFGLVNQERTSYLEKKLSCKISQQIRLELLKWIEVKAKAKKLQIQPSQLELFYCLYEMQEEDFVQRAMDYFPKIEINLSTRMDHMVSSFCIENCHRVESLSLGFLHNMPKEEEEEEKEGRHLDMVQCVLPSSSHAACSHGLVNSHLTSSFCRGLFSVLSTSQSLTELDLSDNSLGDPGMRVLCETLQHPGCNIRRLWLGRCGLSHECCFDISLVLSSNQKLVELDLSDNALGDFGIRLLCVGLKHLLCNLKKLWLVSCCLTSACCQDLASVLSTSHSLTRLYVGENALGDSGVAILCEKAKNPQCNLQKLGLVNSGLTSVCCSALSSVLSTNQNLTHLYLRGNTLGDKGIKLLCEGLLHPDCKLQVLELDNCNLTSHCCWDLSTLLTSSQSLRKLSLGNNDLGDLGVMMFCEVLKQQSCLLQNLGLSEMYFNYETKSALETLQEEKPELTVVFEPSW
Method: The cells were routinely passaged and grown to confluency (˜10^6 cells/ml). On the day of the experiment, THP-1 cells were harvested and resuspended into RPMI medium (without FBS). The cells were then counted and viability (>90%) checked by Trypan blue (Sigma # T8154). […] To this diluted cell solution was added LPS (Sigma # L4524) to give a 1 μg/ml Final Assay Concentration (FAC). 40 μl of the final preparation was aliquoted into each well of a 96-well plate. The plate thus prepared was used for compound screening. THP-1 Cells Pyroptosis Assay The following method step-by-step assay was followed for compound screening. • 1. […] Add 5 μl nigericin (Sigma # N7143) (FAC 5 μM) to all wells • 5. […] At the end of the incubation period, spin plates at 300×g for 3 mins and remove supernatant • 7. Then add 50 μl of resazurin (Sigma # R7017) (FAC 100 μM resazurin in RPMI medium without FBS) and incubate plates for a further 1-2 hrs at 37° C. and 5% CO2 • 8. […] IC50 data is fitted to a non-linear regression equation (log inhibitor vs response-variable slope 4-parameters) [table]

NLRP3 [2] = target: T1, NLRP3; assay: Human whole blood IL1β release assay; assay type: cell-based; design: Human whole blood in Li-heparin tubes was obtained from healthy donors; from tissue; host or cells: human whole blood from healthy donors, LPS-primed, nigericin-stimulated
Method: Human Whole Blood IL1β Release Assay
For systemic delivery, the ability to inhibit NLRP3 when the compounds are present within the bloodstream is of great importance. For this reason, the NLRP3 inhibitory activity of a number of compounds in human whole blood was investigated in accordance with the following protocol.
Human whole blood in Li-heparin tubes was obtained from healthy donors from a volunteer donor panel. • 1. […] Incubate for 3 hrs at 37° C., 5% CO2 • 4. Add 10 μl Nigericin (Sigma # N7143) (10 μM FAC) to all wells • 5. Incubate for 1 hr at 37° C., 5% CO2 • 6. At the end of the incubation period, spin plates at 300×g for 5 mins to pellet cells and remove 20 μl of supernatant and add to 96-well v-bottom plates for IL-1β analysis (note: these plates containing the supernatants can be stored at −80° C. to be analysed at a later date) • 7. IL-1β was measured according to the manufacturer protocol (Perkin Elmer-AlphaLisa IL-1 Kit AL220E-5000) • 8. IC50 data is fitted to a non-linear regression equation (log inhibitor vs response-variable slope 4-parameters)

[3] = THP-1 cells, read-out: THP IC50
[4] = human whole blood, 1 μg/ml LPS, nigericin 10 μM, IL-1β release, read-out: HWB IC50

Row | SMILES | pIC50 (NLRP3 [1]; [3]) | pIC50 (NLRP3 [2]; [4]) | NLRP3 inhibitory activity (in words) (NLRP3 [1]) | pIC50 (NLRP3 [1]; THP IC50, THP-1 cells) | pIC50 (NLRP3 [2])
1 | CC(C)c1cccc(C(C)C)c1NC(=O)NS(=O)(=O)c1cccnn1 [Example 7, N-((2,6-Diisopropylphenyl)carbamoyl)pyridazine-3-sulfonamide, Sodium Salt] | > 5.00 | > 5.60 |  |  | 
2 | COc1nccnc1S(=O)(=O)NC(=O)Nc1c2c(cc3c1CCC3)CCC2 [Example 8, N-((1,2,3,5,6,7-Hexahydro-s-indacen-4-yl)carbamoyl)-3-methoxypyrazine-2-sulfonamide, Potassium Salt] | > 6.10 | > 5.30 |  |  | 
3 | Nc1ncc(S(=O)(=O)NC(=O)Nc2c3c(cc4c2CCC4)CCC3)cn1 [Example 9, 2-Amino-N-((1,2,3,5,6,7-hexahydro-s-indacen-4-yl)carbamoyl) pyrimidine-5-sulfonamide, Potassium Salt] | > 5.70 | > 5.60 |  |  | 
4 | O=C(Nc1c2c(cc3c1CCC3)CCC2)NS(=O)(=O)c1cncnc1 [Example 10, N-((1,2,3,5,6,7-Hexahydro-s-indacen-4-yl)carbamoyl) pyrimidine-5-sulfonamide, Potassium Salt] | > 5.00 | > 5.12 |  |  | 
5 | Cc1ccnc(S(=O)(=O)NC(=O)Nc2c3c(cc4c2CCC4)CCC3)n1 [Example 17, N-((1,2,3,5,6,7-Hexahydro-s-indacen-4-yl)carbamoyl)-4-methyl pyrimidine-2-sulfonamide, Potassium Salt] | > 5.92 | > 5.30 |  |  | 
6 | Cc1cc(C)nc(S(=O)(=O)NC(=O)Nc2c3c(cc4c2CCC4)CCC3)n1 [Example 18, N-((1,2,3,5,6,7-Hexahydro-s-indacen-4-yl)carbamoyl)-4,6-dimethyl pyrimidine-2-sulfonamide, Potassium Salt] | > 6.10 | > 5.60 | highly active |  | 
7 | CN(C)c1cncc(S(=O)(=O)NC(=O)Nc2c3c(cc4c2CCC4)CCC3)n1 [Example 27, 6-(Dimethylamino)-N-((1,2,3,5,6,7-hexahydro-s-indacen-4-yl)carbamoyl)pyrazine-2-sulfonamide, Potassium Salt] | > 6.10 | > 5.12 |  |  | 
8 | CN(C)c1cncc(S(=O)(=O)NC(=O)Nc2c(-c3ccncc3)cc(F)c3c2CCC3)n1 [Example 37, 6-(Dimethylamino)-N-((7-fluoro-5-(pyridin-4-yl)-2,3-dihydro-1H-inden-4-yl)carbamoyl)pyrazine-2-sulfonamide] | > 6.10 | > 5.60 |  |  | 
9 | CC(C)c1cc(F)cc(-c2ccnc(C#N)c2)c1NC(=O)NS(=O)(=O)c1cnc(N(C)C)cn1 [Example 38, N-((2-(2-Cyanopyridin-4-yl)-4-fluoro-6-isopropylphenyl)carbamoyl)-5-(dimethylamino)pyrazine-2-sulfonamide] | > 6.10 | > 5.60 |  |  | 
10 | COc1cc(-c2ccc3c(c2NC(=O)NS(=O)(=O)c2cnc(N(C)C)cn2)CCC3)ccn1 [Example 40, 5-(Dimethylamino)-N-((5-(2-methoxypyridin-4-yl)-2,3-dihydro-1H-inden-4-yl)carbamoyl)pyrazine-2-sulfonamide] | > 6.10 | > 5.60 |  |  | 
11 | Cc1cc(C)nc(S(=O)(=O)NC(=O)Nc2c(-c3ccnc(C#N)c3)cc(F)cc2C(C)C)n1 [Example 46, N-((2-(2-Cyanopyridin-4-yl)-4-fluoro-6-isopropylphenyl)carbamoyl)-4,6-dimethylpyrimidine-2-sulfonamide] | > 6.10 | > 5.60 | highly active |  | 
12 | COc1cc(-c2cc(F)cc(C(C)C)c2NC(=O)NS(=O)(=O)c2nc(C)cc(C)n2)ccn1 [Example 47, N-((4-Fluoro-2-isopropyl-6-(2-methoxypyridin-4-yl)phenyl)carbamoyl)-4,6-dimethylpyrimidine-2-sulfonamide] | > 6.10 |  | highly active |  | 
13 | COc1cc(-c2ccc3c(c2NC(=O)NS(=O)(=O)c2nc(C)cc(C)n2)CCC3)ccn1 [Example 48, N-((5-(2-Methoxypyridin-4-yl)-2,3-dihydro-1H-inden-4-yl)carbamoyl)-4,6-dimethylpyrimidine-2-sulfonamide] | > 6.10 | > 5.60 | highly active |  | 
14 | Cc1cc(C)nc(S(=O)(=O)NC(=O)Nc2c(-c3ccncc3)cc(F)c3c2CCC3)n1 [Example 49, N-((7-Fluoro-5-(pyridin-4-yl)-2,3-dihydro-1H-inden-4-yl)carbamoyl)-4,6-dimethylpyrimidine-2-sulfonamide] | > 6.10 | > 5.60 | highly active |  | 
15 | CC(C)c1cc(F)cc(-c2ccnc(C#N)c2)c1NC(=O)NS(=O)(=O)c1cc(N(C)C)cnn1 [Example 50, N-((2-(2-Cyanopyridin-4-yl)-4-fluoro-6-isopropylphenyl)carbamoyl)-5-(dimethylamino) pyridazine-3-sulfonamide] | > 6.10 | > 5.60 |  |  | 
16 | COc1cc(-c2cc(F)cc(C(C)C)c2NC(=O)NS(=O)(=O)c2cc(N(C)C)cnn2)ccn1 [Example 51, 5-(Dimethylamino)-N-((4-fluoro-2-isopropyl-6-(2-methoxypyridin-4-yl)phenyl)carbamoyl) pyridazine-3-sulfonamide] |  |  |  | > 6.10 | > 5.60
17 | COc1cc(-c2ccc3c(c2NC(=O)NS(=O)(=O)c2cc(N(C)C)cnn2)CCC3)ccn1 [Example 52, 5-(Dimethylamino)-N-((5-(2-methoxypyridin-4-yl)-2,3-dihydro-1H-inden-4-yl)carbamoyl) pyridazine-3-sulfonamide] | > 6.10 | > 5.60 |  |  | 
18 | CN(C)c1cnnc(S(=O)(=O)NC(=O)Nc2c(-c3ccncc3)cc(F)c3c2CCC3)c1 [Example 53, 5-(Dimethylamino)-N-((7-fluoro-5-(pyridin-4-yl)-2,3-dihydro-1H-inden-4-yl)carbamoyl) pyridazine-3-sulfonamide] | > 6.10 | > 5.60 |  |  | 
19 | CN1CCN(c2cncc(S(=O)(=O)NC(=O)Nc3c4c(cc5c3CCC5)CCC4)n2)CC1 [Example 54, N-((1,2,3,5,6,7-Hexahydro-s-indacen-4-yl)carbamoyl)-6-(4-methylpiperazin-1-yl)pyrazine-2-sulfonamide, Potassium Salt] | > 5.70 |  |  |  | 
20 | Cc1cc(N(C)C)nc(S(=O)(=O)NC(=O)Nc2c3c(cc4c2CCC4)CCC3)n1 [Example 56, 4-(Dimethylamino)-N-((1,2,3,5,6,7-hexahydro-s-indacen-4-yl)carbamoyl)-6-methylpyrimidine-2-sulfonamide, potassium salt] | > 6.10 |  | highly active |  | 
21 | CC(C)c1cc(S(=O)(=O)NC(=O)Nc2c3c(cc4c2CCC4)CCC3)ccn1 [Example 57, N-((1,2,3,5,6,7-Hexahydro-s-indacen-4-yl)carbamoyl)-2-isopropylpyridine-4-sulfonamide, Sodium Salt] | > 6.10 |  |  |  | 
22 | COc1cc(-c2ccc3c(c2NC(=O)NS(=O)(=O)c2ccc(CN(C)C)nc2)CCC3)ccn1 [Example 58, 6-((Dimethylamino)methyl)-N-((5-(2-methoxypyridin-4-yl)-2,3-dihydro-1H-inden-4-yl)carbamoyl)pyridine-3-sulfonamide] | > 6.10 | > 5.60 |  |  | 
23 | COc1cc(-c2ccc3c(c2NC(=O)NS(=O)(=O)c2ccnc(CN(C)C)c2)CCC3)ccn1 [Example 59, 2-((Dimethylamino)methyl)-N-((5-(2-methoxypyridin-4-yl)-2,3-dihydro-1H-inden-4-yl)carbamoyl)pyridine-4-sulfonamide, sodium salt] | > 6.10 | > 5.60 |  |  | 
24 | COc1cc(-c2ccc3c(c2NC(=O)NS(=O)(=O)c2ccnc(C(C)C)c2)CCC3)ccn1 [Example 60, 2-Isopropyl-N-((5-(2-methoxypyridin-4-yl)-2,3-dihydro-1H-inden-4-yl)carbamoyl)pyridine-4-sulfonamide, sodium salt] | > 6.10 | > 5.60 |  |  | 
